The results in this text go back to the supplement of paper PMC10307832.

Assay in all cases: relative viability (nuclei count vs DMSO), 5 days (fraction); higher = more cells survive
Compound in test [1]: C1COCCN1C2=NC(=NC3=C2OC4=C3C=CC=N4)C5=CC(=CC=C5)NC(=O)C6=CN=C(C=C6)N + COc1cc2c(Oc3ccc(NC(=O)C4(C(=O)Nc5ccc(F)cc5)CC4)cc3F)ccnc2cc1OCCCN1CCOCC1 [Foretinib] (partner 0.25 µM)
An outline of the steps:
(§1)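 Each reported value is a median over duplicate plates. It expresses relative viability: treated-well nuclei count divided by vehicle-well nuclei count. Lung cancer cell lines in 1536-well plates were dosed by pin tool a day after seeding, alone with one drug or with a fixed anchor-drug dose plus five library-drug doses (not always all listed) in √10 steps, and nuclei were counted after 5 days.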

Compound in test [2]: C1COCCN1C2=NC(=NC3=C2OC4=C3C=CC=N4)C5=CC(=CC=C5)NC(=O)C6=CN=C(C=C6)N + CS(=O)(=O)CCNCc1ccc(-c2ccc3ncnc(Nc4ccc(OCc5cccc(F)c5)c(Cl)c4)c3c2)o1 [Lapatinib] (partner 2 µM)
The method in brief:
as §1

Compound in test [3]: CN1CCC(CNc2ccc3ncc(-c4cccc(OC(F)(F)F)c4)n3n2)CC1 [SGI-1776] + Cc1cc(Nc2cc(N3CCN(C)CC3)nc(Sc3ccc(NC(=O)C4CC4)cc3)n2)n[nH]1 [Tozasertib] (partner 0.1 µM)
The method in brief:
as §1

Compound in test [4]: CN1CCC(CNc2ccc3ncc(-c4cccc(OC(F)(F)F)c4)n3n2)CC1 [SGI-1776] + Nc1ncn([C@H]2C[C@H](O)[C@@H](CO)O2)c(=O)n1 [Decitabine] (partner 2 µM)
An outline of the steps:
as §1

SK-LU-1: the relative viability in test [1] (first compound 0.02 µM) came out at 0.826; in test [1] (first compound 0.06325 µM) it was 0.916; in test [1] (first compound 0.2 µM) it was 0.83; in test [1] (first compound 0.6325 µM), 0.725; in test [1] (first compound 2 µM), 0.557; in test [2] (first compound 0.02 µM), 1.02. In addition, the relative viability was 1.01 in test [2] (first compound 0.06325 µM); 0.786 in test [2] (first compound 0.2 µM); 0.824 in test [2] (first compound 0.6325 µM); 0.33 in test [2] (first compound 2 µM); 0.397 in test [3] (first compound 0.08 µM); 0.265 in test [3] (first compound 0.8 µM). Moreover, the relative viability turned out to be 0.212 in test [3] (first compound 2.53 µM); 0.207 in test [3] (first compound 8 µM); 0.671 in test [4] (first compound 0.08 µM); 0.665 in test [4] (first compound 0.8 µM); 0.658 in test [4] (first compound 2.53 µM); 0.645 in test [4] (first compound 8 µM).
For SK-MES-1, the relative viability in test [1] (first compound 0.02 µM) turned out to be 0.934; in test [1] (first compound 0.06325 µM) it was 1.17; in test [1] (first compound 0.2 µM), 0.929; in test [1] (first compound 0.6325 µM), 0.792; in test [1] (first compound 2 µM), 0.662; in test [2] (first compound 0.02 µM), 0.455. Moreover, the relative viability in test [2] (first compound 0.06325 µM) is 0.492; in test [2] (first compound 0.2 µM), 0.431; in test [2] (first compound 0.6325 µM) it was 0.424; in test [2] (first compound 2 µM), 0.312; in test [3] (first compound 0.08 µM), 0.964; in test [3] (first compound 0.8 µM), 0.35. In addition, the relative viability in test [3] (first compound 2.53 µM) came out at 0.154; in test [3] (first compound 8 µM), 0.133; in test [4] (first compound 0.08 µM), 0.365; in test [4] (first compound 0.8 µM), 0.372; in test [4] (first compound 2.53 µM), 0.367; in test [4] (first compound 8 µM), 0.303.
For the cell line SW 1573, the relative viability came to 0.931 in test [1] (first compound 0.02 µM); 1.07 in test [1] (first compound 0.06325 µM); 1.09 in test [1] (first compound 0.2 µM); 0.877 in test [1] (first compound 0.6325 µM); 0.688 in test [1] (first compound 2 µM); 1.2 in test [2] (first compound 0.02 µM). The relative viability in test [2] (first compound 0.06325 µM) was 1.13; in test [2] (first compound 0.2 µM), 0.932; in test [2] (first compound 0.6325 µM) it was 1.1; in test [2] (first compound 2 µM), 0.896; in test [3] (first compound 0.08 µM) it was 0.174; in test [3] (first compound 0.8 µM), 0.16. For the same cell line, the relative viability came to 0.174 in test [3] (first compound 2.53 µM); 0.17 in test [3] (first compound 8 µM); 0.598 in test [4] (first compound 0.08 µM); 0.459 in test [4] (first compound 0.8 µM); 0.483 in test [4] (first compound 2.53 µM); 0.299 in test [4] (first compound 8 µM).
